According to patent US20210330611A1, “THERAPY FOR NEUROLOGICAL DISEASES/DISORDERS” (priority 2020, published 2021):
pIC50: −log10 of the molar value. Where “and” joins values, the source holds several entries; their conditions need not be identical. Equal values may be shown once. Where a name gives a salt, the structure may show the parent alone. Read-outs that look alike come from different tables or passages of the source.

Tests used:
[1] = test system: fibrin-induced microglia activation; assay: Image-based assay of fibrin-induced microglia activation (HTS and dose response); type: cell-based, rat; conditions: for inhibition at 10 µM: read-out: Fibrin % inhibition
[2] = test system: LPS-induced microglia activation; assay: Image-based assay of LPS-induced microglia activation (HTS and dose response); type: cell-based, rat; conditions: for inhibition at 10 µM: read-out: LPS % inhibition
[3] = test system: fibrin- and LPS-induced microglia activation; assay: cells; type: cell-based, rat
primary rat microglia [4] = assay: Cell toxicity (dead cells, size <150 μm2) in LPS assay
primary rat microglia [5] = assay: Cell toxicity (dead cells, size <150 μm2) in coated fibrin (cFib) assay;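 also: share of dead cells sized under 150 µm2 at 10 µM in fibrin-stimulated microglia HTS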
[6] = Rattus norvegicus, Microglia, primary microglia HTS, fibrin stimulation, increased cell size (>800 μm^2) as marker of activation
[7] = Rattus norvegicus, Microglia, 48 h, primary microglia HTS, LPS stimulation, increased cell size (>800 μm^2) as marker of activation
[8] = quadrant by fibrin and LPS inhibition in HTS of 1907 compounds
[9] = primary microglia HTS, LPS stimulation, decreased size (<150 μm^2) as marker of toxicity
[10] = primary microglia HTS, fibrin stimulation, decreased size (<150 μm^2) as marker of toxicity
[11] = Rattus norvegicus, Microglia, primary HTS, 10 μM, LPS-stimulated primary microglia
[12] = primary HTS, 10 μM, LPS-stimulated primary microglia
[13] = primary HTS, 10 μM, LPS assay, dead cells size <150 μm2
[14] = primary HTS, 10 μM, fibrin assay, dead cells size <150 μm2
[15] = Rattus norvegicus, Microglia, primary microglia HTS, fibrin stimulation, activation = cell size >800 μm2
[16] = Rattus norvegicus, Microglia, 48 h, primary microglia HTS, LPS stimulation, activation = cell size >800 μm2
[17] = primary microglia HTS, LPS stimulation, toxicity = cell size <150 μm2
[18] = primary microglia HTS, fibrin stimulation, toxicity = cell size <150 μm2
[19] = Rattus norvegicus, Microglia, primary microglia HTS, 10 μM, LPS-stimulated, cell size >800 μm^2 as marker of activation
[20] = HTS of 1907 compounds, quadrant by fibrin and LPS inhibition
[21] = primary microglia HTS, 10 μM, LPS assay, cell size <150 μm^2 as marker of toxicity
[22] = primary microglia HTS, 10 μM, fibrin assay, cell size <150 μm^2 as marker of toxicity
[23] = primary microglia HTS, LPS stimulation, activation = cell size >800 μm2
[24] = Rattus norvegicus, Microglia, primary HTS, 10 μM, fibrin-stimulated primary microglia

CCCCC(CC)COC(=O)c1ccccc1O (centres unmarked) [Octisalate]
inhibition at 10 µM [1, 6]: -17%
inhibition at 10 µM [2, 7]: 5%
Quadrant (FIG. 5b) [3, 8]: Q4
LPS % cell toxicity (primary rat microglia [4]; [9]): 0%
Fibrin % cell toxicity (primary rat microglia [5]; [10]): 0%

CC(C)(O/N=C(\C(=O)N[C@@H]1C(=O)N2C(C(=O)[O-])=C(C[n+]3ccccc3)CS[C@H]12)c1csc(N)n1)C(=O)O [Ceftazidime]
inhibition at 10 µM [2, 11]: 17%
LPS % inhibition [2, 12]: 30%
Quadrant (FIG. 5b) ([3]; primary HTS, 10 μM): Q4
LPS % cell toxicity (primary rat microglia [4]; [13]): 1%
Fibrin % cell toxicity (primary rat microglia [5]; [14]): 1%

C[C@H](O)C(=O)Nc1c(I)c(C(=O)NC(CO)CO)c(I)c(C(=O)NC(CO)CO)c1I [Iopamidol]
inhibition at 10 µM [1, 15]: -14%
inhibition at 10 µM [2, 16]: -4%
Quadrant (FIG. 5b) [3, 8]: Q4
LPS % cell toxicity (primary rat microglia [4]; [17]): 0%
Fibrin % cell toxicity (primary rat microglia [5]; [18]): 1%

CC(CCc1ccccc1)NC(C)C(O)c1ccc(O)cc1 (centres unmarked) [Nylidrin hydrochloride, reference compound]
pIC50 ([1]; Rattus norvegicus, Microglia, Table 7, read-out: fib_IC50): 8.70
inhibition at 10 µM [1, 6]: 6%
inhibition at 10 µM [2, 7]: 24%
pIC50 ([2]; Rattus norvegicus, Microglia, Table 7, read-out: LPS_IC50): 8.15
Quadrant (FIG. 5b) ([3]; Table 2, screen at 10 μM): Q4
Activity ([3]; Table 7, fib = fibrin, LPS, tox = toxicity): fib/LPS
Quadrant (FIG. 5b) [3, 8]: Q4
LPS % cell toxicity (primary rat microglia [4]; [9]): 1%
Fibrin % cell toxicity (primary rat microglia [5]; [10]): 0%

Cc1noc(NS(=O)(=O)c2ccc(N)cc2)c1C [Sulfisoxazole]
inhibition at 10 µM ([1]; Rattus norvegicus, Microglia, primary microglia HTS, 10 μM, fibrin-stimulated, cell size >800 μm^2 as marker of activation): -11%
inhibition at 10 µM [2, 19]: 6%
Quadrant (FIG. 5b) [3, 20]: Q4
LPS % cell toxicity (primary rat microglia [4]; [21]): 0%
Fibrin % cell toxicity (primary rat microglia [5]; [22]): 0%

CC(C)(C)NC[C@H](O)COc1cccc2c1CCCC2=O [Levobunolol]
Fibrin % inhibition ([1]; primary microglia HTS, fibrin stimulation, activation = cell size >800 μm2): −28%
LPS % inhibition [2, 23]: 30%
Quadrant (FIG. 5b) [3, 8]: Q4
LPS % cell toxicity (primary rat microglia [4]; [17]): 0%
Fibrin % cell toxicity (primary rat microglia [5]; [18]): 1%

COC(=O)Nc1nc2ccc([S+]([O-])c3ccccc3)cc2[nH]1 (centres unmarked) [Oxfendazole]
inhibition at 10 µM [1, 6]: 10%
inhibition at 10 µM [2, 7]: 20%
Quadrant (FIG. 5b) [3, 8]: Q4
LPS % cell toxicity (primary rat microglia [4]; [9]): 1%
Fibrin % cell toxicity (primary rat microglia [5]; [10]): 0%

NS(=O)(=O)c1ccc(C(=O)O)cc1 [Carzenide]
inhibition at 10 µM [1, 24]: -24%
inhibition at 10 µM [2, 11]: 14%
Quadrant (FIG. 5b) ([3]; primary HTS, 10 μM): Q4
LPS % cell toxicity (primary rat microglia [4]; [13]): 0%
Fibrin % cell toxicity (primary rat microglia [5]; [14]): 1%

NC(=O)N1c2ccccc2C=Cc2ccccc21 [Carbamazepine]
inhibition at 10 µM [1, 24]: -25%
inhibition at 10 µM [2, 11]: 4%
Quadrant (FIG. 5b) ([3]; primary HTS, 10 μM): Q4
LPS % cell toxicity (primary rat microglia [4]; [13]): 0%
Fibrin % cell toxicity (primary rat microglia [5]; [14]): 0%

CC[C@H](c1ccc(O)cc1)[C@@H](CC)c1ccc(O)cc1 [Hexestrol]
inhibition at 10 µM [1, 15]: -29%
inhibition at 10 µM [2, 16]: 7%
Quadrant (FIG. 5b) [3, 8]: Q4
LPS % cell toxicity (primary rat microglia [4]; [17]): 0%
Fibrin % cell toxicity (primary rat microglia [5]; [18]): 1%

Carboplatin
LPS % inhibition [2, 12]: 4% and 7%
Quadrant (FIG. 5b) ([3]; primary HTS, 10 μM): Q4
LPS % cell toxicity (primary rat microglia [4]; [13]): 0%
Fibrin % cell toxicity (primary rat microglia [5]; [14]): 1%

CCC(=O)O[C@]1(C(=O)SCF)[C@H](C)C[C@H]2[C@@H]3C[C@H](F)C4=CC(=O)C=C[C@]4(C)[C@@]3(F)[C@@H](O)C[C@@]21C [Fluticasone Propionate]
inhibition at 10 µM [1, 6]: 108%
Quadrant (FIG. 5b) [3, 8]: Q2
LPS % cell toxicity (primary rat microglia [4]; [9]): 3% and 4%
Fibrin % cell toxicity (primary rat microglia [5]; [10]): 7% and 5%

CCN1CCCC1CNC(=O)c1cc(S(N)(=O)=O)ccc1OC (centres unmarked) [Sulpiride]
inhibition at 10 µM [2, 19]: 11%
LPS % inhibition ([2]; primary microglia HTS, 10 μM, LPS-stimulated, cell size >800 μm^2 as marker of activation): 7%
Quadrant (FIG. 5b) [3, 20]: Q4
LPS % cell toxicity (primary rat microglia [4]; [21]): 0%
Fibrin % cell toxicity (primary rat microglia [5]; [22]): 1%

CC[C@H](C)[C@H]1O[C@]2(CC[C@@H]1C)C[C@@H]1C[C@@H](C/C=C(\C)[C@@H](O[C@H]3C[C@H](OC)[C@@H](O[C@H]4C[C@H](OC)[C@@H](O)[C@H](C)O4)[C@H](C)O3)[C@@H](C)/C=C/C=C3\CO[C@@H]4[C@H](O)C(C)=C[C@@H](C(=O)O1)[C@]34O)O2 [Ivermectin]
LPS % inhibition [2, 23]: 10% and 19%
Quadrant (FIG. 5b) [3, 8]: Q4
LPS % cell toxicity (primary rat microglia [4]; [17]): 0%
Fibrin % cell toxicity (primary rat microglia [5]; [18]): 1% and 0%

OC[C@H]1O[C@@H](n2cnc3c(O)ncnc32)[C@H](O)[C@@H]1O [Inosine]
inhibition at 10 µM [1, 15]: -31%
inhibition at 10 µM [1, 6]: 111%
inhibition at 10 µM [2, 16]: -11%
inhibition at 10 µM [2, 7]: 115%
LPS % cell toxicity (primary rat microglia [4]; [17]): 0%
LPS % cell toxicity (primary rat microglia [4]; [9]): 2%
Fibrin % cell toxicity (primary rat microglia [5]; [18]): 1%
Fibrin % cell toxicity (primary rat microglia [5]; [10]): 7%

CC(=O)[C@@]1(O)CC[C@H]2[C@@H]3C[C@H](C)C4=CC(=O)C=C[C@]4(C)[C@@]3(F)[C@@H](O)C[C@@]21C [Fluorometholone]
inhibition at 10 µM [1, 6]: 104%
Quadrant (FIG. 5b) [3, 8]: Q2
LPS % cell toxicity (primary rat microglia [4]; [9]): 1% and 7%
Fibrin % cell toxicity (primary rat microglia [5]; [10]): 6% and 3%
